In ChEMBL document CHEMBL3102851, “Trinorditerpenes from the roots of Flueggea virosa” (Bioorg Med Chem Lett, 2014) one finds EC50 and IC50 data, which are given here for four molecules.

Assay [1] has as its system Hepatitis C virus. As to the kind of experiment: Antiviral activity against HCV infected in human Huh7.5 cells. The format is functional, organism-based, Hepacivirus hominis. The following applies: Huh-7.
The nature of assay [2]: Antiinflammatory activity in human neutrophils assessed as FMLP/cytochalasin B-induced superoxide anion generation after 5 mins by spectrophotometry. The format is functional, cell-based. The following applies: Neutrophil.
Assay [3] is described as follows: Antiinflammatory activity in human neutrophils assessed as FMLP/cytochalasin B-induced elastase release after 5 mins by spectrophotometry. In kind it is functional, cell-based. The following applies: Neutrophil.
The nature of assay [4]: Cytotoxicity against human Huh7.5 cells. The following applies: Huh-7. The format is cell-based.

`Cc1cc2ccc3c(c2cc1O)CCC(=O)C3(C)C`: the EC50 in assay [1] came to 13 µM. In addition, the IC50 in assay [2] was determined as 4.4 µM; in assay [3], 4.3 µM; in assay [4] it was 26.9 µM.

`C=CCc1ccc(O)c(-c2ccc(O)c(CC=C)c2)c1` [HONOKIOL] gave a 50% effective concentration (EC50) in assay [1] of 9.4 µM. The molecule also came in with an IC50 in assay [4] of 58.5 µM.

For the molecule `CNC(=O)c1cc(Oc2ccc(NC(=O)Nc3ccc(Cl)c(C(F)(F)F)c3)cc2)ccn1` [SORAFENIB], the IC50 in assay [2] came out at 3.2 µM; in assay [3], 2 µM.

The molecule `COc1cc2c3c(ccc2cc1C)C(C)(C)C(O)CC3` (racemic) displayed an EC50 in assay [1] of 23.6 µM. Further, the values for the IC50 in assay [2], in assay [3] and in assay [4] were more than 30 µM, 9.6 µM and 64.8 µM, respectively.

In general, EC50 refers to the concentration that produces a half-maximal response. Higher therefore signals lower potency in that assay. As usually defined, the IC50 is the midpoint of a concentration-inhibition curve.
